Test system: adult patients with uncontrolled gout
Test: Health Assessment Questionnaire (HAQ-DI, HAQ pain, HAQ health), open-label study
Type: in vivo, human
Parameters: key to HAQ-Health, Observed, Median / HAQ-Health, Change from Baseline, Median: 0-100 scale; 0 = very well, 100 = very poor health; key to HAQ-DI, Observed, Median / HAQ-DI, Change from Baseline, Median: HAQ-DI scale 0-3; 0 = no difficulty, 3 = unable to do
Settings: mITT Population
Description: Quality-of-Life Assessment: The HAQ was administered at the Screening and Week −4 or week −6 (prior to the first dose of MTX) Visits during the MTX Run-in Period for the open-label and randomized studies, respectively; prior to pegloticase infusion at the Day 1 and Weeks 14, 24 and 36 Visits or at the Day 1 and weeks 6, 14, 20, 24, 30, 36, and 44 visits during the Pegloticase+IMM Period for the open-label and randomized studies, respectively; at the End of Pegloticase Infusions Visit (if applicable), the Week 52/End of Study/Early Termination Visit and the Post Treatment Periods 3 and 6 Month Follow-up Visits (open-label study). The HAQ-DI is a self-report functional status instrument that can be filled out by a subject in less than 5 minutes and requires 1 minute to score. The index measures disability over the past week by asking a total of 20 questions covering 8 domains of function: dressing and grooming, arising, eating, walking, hygiene, reach, grip, and usual activities. There are at least 2 questions in each domain and the 8 domains represent a comprehensive set of functional activities. The HAQ-DI is calculated by scoring the answer to each question in the HAQ from 0 to 3, with 0 representing the ability to do without any difficulty, and 3 representing inability to do. Any activity that requires assistance from another individual or requires the use of an assistive device raises a 0 or 1 score to a 2. The highest score for each of the 8 domains is summed (range from 0 to 24) and divided by 8 to yield, on a scale with 25 possible values, a Functional Disability Index with a range from 0 to 3. The disability index is based on the number of domains answered and is computed only if the subject completes answers to at least 6 domains. The HAQ pain scale asks subjects to record how much pain they have had in the past week on a scale of 0 to 100, where zero represents “no pain” and 100 represents “severe pain”. The HAQ health scale is a measure of overall health. Subjects are asked to rate how well they are doing on a score of 0 to 100, where zero represents “very well” and 100 represents “very poor” health.

[1] = Early Termination Visit, Methotrexate Baseline
[2] = Early Termination Visit, Pegloticase Baseline
[3] = End of Pegloticase Infusions Visit, Methotrexate Baseline
[4] = End of Pegloticase Infusions Visit, Pegloticase Baseline

Substance: pegloticase
- HAQ-DI, Change from Baseline, Mean (SD) (Day 1, Methotrexate Baseline): 0.1 (0.27)
- HAQ-DI, Change from Baseline, Median (Day 1, Methotrexate Baseline): 0.0
- HAQ-DI, Observed, Mean (SD) (Day 1, Methotrexate Baseline): 0.8 (0.77)
- HAQ-DI, Observed, Median (Day 1, Methotrexate Baseline): 0.5
- HAQ-Health, Change from Baseline, Mean (SD) (Day 1, Methotrexate Baseline): −8.8 (38.29)
- HAQ-Health, Change from Baseline, Median (Day 1, Methotrexate Baseline): 10.0
- HAQ-Health, Observed, Mean (SD) (Day 1, Methotrexate Baseline): 37.8 (27.06)
- HAQ-Health, Observed, Median (Day 1, Methotrexate Baseline): 25.0
- HAQ-Pain, Change from Baseline, Mean (SD) (Day 1, Methotrexate Baseline): 2.3 (19.93)
- HAQ-Pain, Change from Baseline, Median (Day 1, Methotrexate Baseline): 0.0
- HAQ-Pain, Observed, Mean (SD) (Day 1, Methotrexate Baseline): 42.5 (22.24)
- HAQ-Pain, Observed, Median (Day 1, Methotrexate Baseline): 40.0
- HAQ-DI, Change from Baseline, Mean (SD) [1]: 0.2 (0.90)
- HAQ-DI, Change from Baseline, Median [1]: −0.3
- HAQ-DI, Observed, Mean (SD) [1]: 0.7 (0.51)
- HAQ-DI, Observed, Median [1]: 0.6
- HAQ-Health, Change from Baseline, Mean (SD) [1]: −0.7 (16.77)
- HAQ-Health, Change from Baseline, Median [1]: 8.0
- HAQ-Health, Observed, Mean (SD) [1]: 28.3 (40.72)
- HAQ-Health, Observed, Median [1]: 10.0
- HAQ-Pain, Change from Baseline, Mean (SD) [1]: 19.0 (36.51)
- HAQ-Pain, Change from Baseline, Median [1]: 7.0
- HAQ-Pain, Observed, Mean (SD) [1]: 46.7 (40.41)
- HAQ-Pain, Observed, Median [1]: 40.0
- HAQ-DI, Change from Baseline, Mean (SD) [2]: 0.2 (0.56)
- HAQ-DI, Change from Baseline, Median [2]: 0.1
- HAQ-DI, Observed, Mean (SD) [2]: 0.7 (0.51)
- HAQ-DI, Observed, Median [2]: 0.6
- HAQ-Health, Change from Baseline, Mean (SD) [2]: −11.7 (62.52)
- HAQ-Health, Change from Baseline, Median [2]: −10.0
- HAQ-Health, Observed, Mean (SD) [2]: 28.3 (40.72)
- HAQ-Health, Observed, Median [2]: 10.0
- HAQ-Pain, Change from Baseline, Mean (SD) [2]: 0.0 (45.83)
- HAQ-Pain, Change from Baseline, Median [2]: −10.0
- HAQ-Pain, Observed, Mean (SD) [2]: 46.7 (40.41)
- HAQ-Pain, Observed, Median [2]: 40.0
- HAQ-DI, Change from Baseline, Mean (SD) [3]: −0.1 (0.35)
- HAQ-DI, Change from Baseline, Median [3]: −0.1
- HAQ-DI, Observed, Mean (SD) [3]: 0.1 (0.18)
- HAQ-DI, Observed, Median [3]: 0.1
- HAQ-Health, Change from Baseline, Mean (SD) [3]: −80.0 (0.00)
- HAQ-Health, Change from Baseline, Median [3]: −80.0
- HAQ-Health, Observed, Mean (SD) [3]: 0.0 (0.00)
- HAQ-Health, Observed, Median [3]: 0.0
- HAQ-Pain, Change from Baseline, Mean (SD) [3]: 2.5 (74.25)
- HAQ-Pain, Change from Baseline, Median [3]: 2.5
- HAQ-Pain, Observed, Mean (SD) [3]: 40.0 (56.57)
- HAQ-Pain, Observed, Median [3]: 40.0
- HAQ-DI, Change from Baseline, Mean (SD) [4]: −0.1 (0.35)
- HAQ-DI, Change from Baseline, Median [4]: −0.1
- HAQ-DI, Observed, Mean (SD) [4]: 0.1 (0.18)
- HAQ-DI, Observed, Median [4]: 0.1
- HAQ-Health, Change from Baseline, Mean (SD) [4]: −45.0 (49.50)
- HAQ-Health, Change from Baseline, Median [4]: −45.0
- HAQ-Health, Observed, Mean (SD) [4]: 0.0 (0.00)
- HAQ-Health, Observed, Median [4]: 0.0
- HAQ-Pain, Change from Baseline, Mean (SD) [4]: 2.5 (74.25)
- HAQ-Pain, Change from Baseline, Median [4]: 2.5
- HAQ-Pain, Observed, Mean (SD) [4]: 40.0 (56.57)
- HAQ-Pain, Observed, Median [4]: 40.0
- HAQ-DI, Change from Baseline, Mean (SD) (Week 14, Methotrexate Baseline): −0.2 (0.77)
- HAQ-DI, Change from Baseline, Median (Week 14, Methotrexate Baseline): 0.0
- HAQ-DI, Observed, Mean (SD) (Week 14, Methotrexate Baseline): 0.5 (0.41)
- HAQ-DI, Observed, Median (Week 14, Methotrexate Baseline): 0.5
- HAQ-Health, Change from Baseline, Mean (SD) (Week 14, Methotrexate Baseline): −12.5 (36.79)
- HAQ-Health, Change from Baseline, Median (Week 14, Methotrexate Baseline): −5.0
- HAQ-Health, Observed, Mean (SD) (Week 14, Methotrexate Baseline): 36.6 (33.87)
- HAQ-Health, Observed, Median (Week 14, Methotrexate Baseline): 16.5
- HAQ-Pain, Change from Baseline, Mean (SD) (Week 14, Methotrexate Baseline): −13.9 (30.48)
- HAQ-Pain, Change from Baseline, Median (Week 14, Methotrexate Baseline): −12.5
- HAQ-Pain, Observed, Mean (SD) (Week 14, Methotrexate Baseline): 27.1 (26.25)
- HAQ-Pain, Observed, Median (Week 14, Methotrexate Baseline): 15.0
- HAQ-DI, Change from Baseline, Mean (SD) (Week 14, Pegloticase Baseline): −0.3 (0.80)
- HAQ-DI, Change from Baseline, Median (Week 14, Pegloticase Baseline): 0.0
- HAQ-DI, Observed, Mean (SD) (Week 14, Pegloticase Baseline): 0.5 (0.41)
- HAQ-DI, Observed, Median (Week 14, Pegloticase Baseline): 0.5
- HAQ-Health, Change from Baseline, Mean (SD) (Week 14, Pegloticase Baseline): −4.3 (43.82)
- HAQ-Health, Change from Baseline, Median (Week 14, Pegloticase Baseline): −1.0

Reference: patent US20220409620A1, “REDUCING IMMUNOGENICITY TO PEGLOTICASE” (Horizon Pharma Rheumatology LLC, priority 2016, published 2022)
